Source: ChEMBL document CHEMBL4814073, “Ring-opening of five-membered heterocycles conjugated 4-isopropylresorcinol scaffold-based benzamides as HSP90 inhibitors suppressing tumor growth in vitro and in vivo” (Eur J Med Chem, 2021)
Activity calls are given as the source filed them. No cut-off for these calls is given here.

Experiments:
A549 [1] = assay: Antitumor activity against human A549 cells xenografted in BALB/c mouse assessed as tumor growth inhibition at 25 mg/kg, po treated daily relative to control; settings: read-out: TGI
A549 [2] = assay: Induction of cell cycle arrest in human A549 cells assessed as M stage arrest by measuring upregulation of p-histone H3 (Ser10) expression at 0.3 uM incubated for 24 hrs by Western blot analysis; assay type: functional, cell-based
A549 [3] = assay: Induction of cell cycle arrest in human A549 cells assessed as M stage arrest by measuring upregulation of p-MPM-2 expression at 0.3 uM incubated for 24 hrs by Western blot analysis; assay type: functional, cell-based
A549 [4] = assay: Antitumor activity against human A549 cells xenografted in BALB/c mouse assessed as tumor growth delay at 50 mg/kg, po treated daily relative to control
Cytochrome P450 2C9 = Cytochrome P450 2C9 (Homo sapiens, UniProt P11712); assay: Inhibition of CYP2C9 in human liver microsomes using diclofenac as substrate by LC-MS/MS analysis; assay type: ADME
Sequence of Cytochrome P450 2C9 (P11712 whole entry): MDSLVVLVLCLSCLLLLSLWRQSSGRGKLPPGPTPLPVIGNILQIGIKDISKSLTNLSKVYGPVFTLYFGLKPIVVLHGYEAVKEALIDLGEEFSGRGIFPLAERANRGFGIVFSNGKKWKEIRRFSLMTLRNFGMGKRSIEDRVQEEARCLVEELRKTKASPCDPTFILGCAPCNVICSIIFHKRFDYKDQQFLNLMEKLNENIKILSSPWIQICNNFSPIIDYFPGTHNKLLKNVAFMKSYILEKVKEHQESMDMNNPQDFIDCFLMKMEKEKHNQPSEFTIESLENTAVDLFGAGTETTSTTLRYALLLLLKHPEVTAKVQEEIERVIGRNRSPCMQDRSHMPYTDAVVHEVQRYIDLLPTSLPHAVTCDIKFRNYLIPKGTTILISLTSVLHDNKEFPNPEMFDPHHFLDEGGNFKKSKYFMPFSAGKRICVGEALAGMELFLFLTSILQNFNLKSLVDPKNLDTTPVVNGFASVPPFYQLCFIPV

Heat shock protein HSP90 = Heat shock protein HSP90 (Homo sapiens, UniProt P07900+P08238); assay: Inhibition of HSP90 (unknown origin) assessed as competition of fluorescently labelled geldanamycin binding after 2 hrs by microplate reader analysis; assay type: protein assay
A549 [5] = assay: Induction of apoptosis in human A549 cells assessed as increase in cleaved caspase 9 protein expression at 0.3 to 3 uM measured after 18 hrs by western blot analysis; assay type: functional, cell-based; settings: dose 0.3-3 µM
[6] = Metabolic stability in CD1 mouse hepatocytes assessed as Intrinsic clearance by LC-MS/MS analysis; assay type: ADME, cell-based, Hepatocyte

## CCN(C(=O)c1cc(C(C)C)c(O)cc1O)c1cccnc1
A549 [1]
  inhibition in vivo at 25 mg/kg: 46.7%
A549 [2]
  Activity: Active
A549 [3]
  Activity: Active
A549 [4]
  Activity: 72%
Cytochrome P450 2C9
  IC50: 15 µM
Heat shock protein HSP90
  IC50: 0.11 µM
A549 [5]
  Activity: Active
[6]
  CLint: 185 L/h/kg
